The numbers were not newly measured in US5866539A, “Method for the control of antibiotic-resistant gram positive bacteria and treatment of infection” (AMBI Inc., priority 1996, dated 1999), which cites them from elsewhere.

Where no end group is shown, it is not given here.

In this data set the test system is staphylococci and enterococci. Particulars: compared to currently used therapeutic agents.

Actagardine: the “activity towards staphylococci and enterococci” value is “only moderate activity”.

Take “mersacidin (CTFTLPGGGGVCTLTSECIC; also: lantibiotic thioether rings, places not given here; UniProt P43683 49-68, looked up) [more recent lanthionine-containing antimicrobial peptide evaluated in the literature]”: the “activity towards staphylococci and enterococci” value is listed as “only moderate activity”.
